Assay results published in patent US11572377B2, “Nucleotide analogs” (The Regents of the University of California, priority 2015, dated 2023).
Where two headings read alike, the source gives them in different places.

Key:
HPV-11 = test: Low risk HPV assay: HPV origin plasmid replication in HEK 293 cells (qPCR); assay type: cell-based, human papillomavirus
Protocol: (§1) An origin-containing low risk or high risk HPV plasmid was co-transfected with homologous E1 and E2 protein expression vectors into HEK 293 cells. At 4 h post-transfection, cells were treated with test compound dilutions and then incubated for 48 h. HPV origin plasmid replication was detected after digestion with DpnI and exonuclease III to remove unreplicated transfected plasmids. Remaining replicated DNA was quantified by quantitative real time PCR (qPCR). In a parallel experiment in uninfected cells cytotoxicity was determined by trypan blue exclusion or CELLTITER-GLO® to find the concentration that reduced viable cell number by 50% (CC50). CC50 values were determined by trypan blue exclusion or CELLTITER-GLO® and the selectivity index calculated (Selectivity index=CC50/EC50). The low risk HPV tested was HPV-11, and the high-risk HPV tested was HPV-16 and HPV-18.

[1] = Cytotoxicity assay in HEK-293 cells (CELLTITER-GLO); assay type: cell-based; details: human; for CC50 at 2 d: Table 3, CELLTITER-GLO, 2 d incubation; for CC50 at 48 h: Table B, parallel to HPV-11 antiviral assay
Protocol: as §1
Cytotoxicity Assays in HEK-293 cells. Cytotoxicity assays are performed in concurrently with every antiviral assay using the same cell line and media to ensure the same compound exposure. For the antiviral studies against HPV11 in HEK-293 cells, transfected cells are seeded in duplicate plates. Following a 2 h exposure, compound dilutions are prepared in both the antiviral plate and the duplicate cytotoxicity plate. At 48 h following compound addition, CELLTITE-GLO® (Promega) is added to each well and luminescence is determined on a luminometer. Concentrations of compounds sufficient to reduce cell viability by 50% are calculated from the experimental data (CC50 values).

[2] = Cytotoxicity assay in primary human foreskin fibroblast cells (CELLTITER-GLO); assay type: cell-based; details: Table 3, CELLTITER-GLO, 7 d incubation
Protocol: Cytotoxicity Assays in Primary Human Foreskin Fibroblast Cells. Cytotoxicity was also evaluated in human foreskin fibroblast (HFF) cells as they are a highly sensitive indicator of toxicity in a standard assay with 7 d of compound exposure. A total of 4000 cells/well are seeded in 384-well plates in cell culture media containing 2% fetal bovine serum and antibiotics. Following a 24 h incubation, 5-fold compound dilutions are performed in duplicate wells directly in the plates containing monolayers of HFF cells. At 7 d following compound addition, CELLTITER-GLO® reagent is added to each well and resulting luminescence is measured on a luminometer to assess the number of viable cells in each well. Data are then used to calculate CC50 values.

HPV-16 and HPV-18 = test: High risk HPV assay: HPV origin plasmid replication in HEK 293 cells (qPCR); assay type: cell-based, human papillomavirus; details: read-out: EC50 High Risk
Protocol: as §1

[3] = Human papillomavirus, HEK293, Antiviral activity against HPV-11 in HEK-293 cells, read-out: EC50
[4] = Human papillomavirus, HEK293, Antiviral activity against HPV-11 in HEK-293 cells, read-out: EC90
[5] = primary human foreskin fibroblast (HFF) cells
[6] = low risk HPV (HPV-11), HEK 293 cells, 48 h incubation, read-out: EC50 Low Risk

Row | Structure (SMILES) | EC50 (HPV-11; [3]) | EC90 (HPV-11; [4]) | CC50 at 2 d ([1]; HEK-293 cells) | CC50 at 48 h ([1]; HEK-293 cells) | CC50 at 7 d [2, 5] | other results
1 | CCCCCCCCCCCCCCCCCCOCCOP(=O)(COCCn1cnc2c(=O)[nH]c(N)nc21)OCc1ccc(OC)c(F)c1 (stereo not drawn) [ODE-(3-F-4-OMe-Bn)-PMEG] | 0.18 ± 0.04 µM | 0.99 ± 0.13 µM | 13.1 ± 5.17 µM | 14.2 ± 9.48 µM | 1.72 ± 0.66 µM | 
2 | CCCCCCCCCCCCCCCCCCOCCOP(=O)(COCCn1cnc2c(=O)[nH]c(N)nc21)OCc1cccc(Cl)c1 (stereo not drawn) [ODE-(3-Cl-Bn)-PMEG] | 0.22 ± 0.19 µM | > 0.4 µM | 1 ± 0.16 µM | 1.11 ± 0.27 µM | 4.65 ± 1.73 µM | 
3 | CCCCCCCCCCCCCCCCCCOCCOP(=O)(O)COCCn1cnc2c(=O)[nH]c(N)nc21 [ODE-PMEG, Octadecyloxyethyl-Phosphonomethoxyethylguanine, reference compound] |  |  |  |  |  | EC50 (HPV-11; [6]): < 0.3 µM; EC50 (HPV-16 and HPV-18; high risk HPV (HPV-16 and HPV-18), HEK 293 cells, 48 h incubation): < 0.3 µM
4 | CCCCCCCCCCCCCCCCCCOCCOP(=O)(COCCn1cnc2c(=O)[nH]c(N)nc21)OCc1ccc(OC)c(Cl)c1 (stereo not drawn) [ODE-(3-Cl-4-OMe-Bn)-PMEG] | 0.68 ± 0.62 µM | 1.34 ± 0.78 µM | 8.87 ± 1.2 µM | 8.31 ± 1.83 µM | 2.27 ± 0.51 µM | 
5 | CCOC(=O)[C@H](C)NP(=O)(COCCn1cnc2c(=O)[nH]c(N)nc21)N[C@@H](C)C(=O)OCC [PMEG bisamidate, 9-[2-(bis-(ethyloxy-L-alaninyl)-phosphonomethoxy)ethyl]guanine] | 5.04 ± 7.01 µM | > 100 µM | > 100 µM | > 100 µM | > 100 µM | 
6 | CCOC(=O)[C@H](C)NP(=O)(COCCn1cnc2c(=O)[nH]c(N)nc21)Oc1ccccc1 (stereo partly drawn) [PMEG phenoxy amidate] |  |  |  | > 100 µM |  | EC50 (HPV-11; Human papillomavirus, HEK293): 7.56 ± 0.63 µM; EC90 (HPV-11; Human papillomavirus, HEK293): > 100 µM; CC50 at 2 d [1]: > 100 µM; CC50 at 7 d ([2]; read-out: CC50 HFF (7 d incubation)): 70.9 ± 4.07 µM
7 | Nc1ccn(C[C@@H](CO)OCP(=O)(O)O)c(=O)n1 [Cidofovir, cidofovir, reference compound] | 41.7 ± 12 µM | > 300 µM | > 300 µM | > 300 µM | > 300 µM | 
8 | CCCCCCCCCCCCCCCCCCOCC(COP(=O)(O)COCCn1cnc2c(=O)[nH]c(N)nc21)OCc1ccccc1 (stereo not drawn) [ODBG-PMEG, 1-O-Octadecyl-2-O-benzyl-sn-glyceryl PMEG] |  |  |  |  |  | EC50 (HPV-11; Human papillomavirus, HEK293, low risk HPV (HPV-11), HEK 293 cells, 48 h incubation, read-out: EC50 Low Risk): 0.3 to 3.09 µM; EC50 (HPV-16 and HPV-18; Human papillomavirus, HEK293, 48 h): 0.3 to 3.09 µM
9 | Nc1nc2c(ncn2CCOCP(=O)(O)O)c(=O)[nH]1 [PMEG, 9-(2-phosphonylmethoxyethyl)guanine, reference compound] |  |  |  |  |  | EC50 (HPV-11; [6]): 3 to 30 µM
10 | CCCCCCCCCCCCCCCCCCOCCOP(=O)(COCCn1cnc2c(=O)[nH]c(N)nc21)OCc1ccc(C)cc1 (stereo not drawn) [ODE-(4-Me-Bn)-PMEG] | 0.93 ± 0.91 µM | 7 ± 3.45 µM | 32 ± 8.14 µM | 23.8 ± 19.5 µM | 6.02 ± 3.79 µM | 
11 | CCCCCCCCCCCCCCCCCCOCCOP(=O)(COCCn1cnc2c(=O)[nH]c(N)nc21)OCc1cccc(F)c1 (stereo not drawn) [ODE-(3-F-Bn)-PMEG] | 0.26 µM | 1.59 ± 0.57 µM | 2.16 ± 0.36 µM | 1.74 ± 0.03 µM | 6.88 ± 4.92 µM | 
